Experimental data: PubChem BioAssay AID1919007 (Molecular Pharmacology Branch, DTP, NCI, 2023)
Several values for one entry are separate records, joined by “and”; a condition that tells them apart may be missing. Identical values can stand only once.

Test system: A498 complex spheroids with HUVEC/MSC, growth
Assay: Anticancer human tumor A498 cell line growth inhibition [AhR];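 note: seven day exposure starting three days after spheroid seeding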;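 for viability, T/C: luminescence signal used as a surrogate for viable cells; luminescence viability scaled so 100% equals DMSO vehicle wells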
Conditions: for viability, T/C: stronger effect = lower value; active = viability on the fitted dose curve at most 10% of control; inactive = the rest
Summary of the method: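 Complex tumor spheroids co-cultured with HUVEC and human MSC stroma; AhR antagonists tested in combination with standard-of-care and investigational agents. Top concentration at or near clinical Cmax (else 10 microM), half-log dilutions; growth expressed as percent test/control.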

[1] = curve of first compound, second compound 0.1 µM
[2] = curve of first compound, second compound 0.316 µM
[3] = curve of first compound, second compound 1 µM
[4] = curve of first compound, second compound 3.16 µM
[5] = curve of first compound, second compound 10 µM
[6] = second compound 0.1 µM, first compound 0.000949 µM
[7] = second compound 0.1 µM, first compound 0.003 µM
[8] = second compound 0.1 µM, first compound 0.00949 µM
[9] = second compound 0.1 µM, first compound 0.03 µM
[10] = second compound 0.1 µM, first compound 0.0949 µM
[11] = second compound 0.1 µM, first compound 0.3 µM
[12] = second compound 0.316 µM, first compound 0.000949 µM
[13] = second compound 0.316 µM, first compound 0.003 µM
[14] = second compound 0.316 µM, first compound 0.00949 µM
[15] = second compound 0.316 µM, first compound 0.03 µM
[16] = second compound 0.316 µM, first compound 0.0949 µM
[17] = second compound 0.316 µM, first compound 0.3 µM
[18] = second compound 1 µM, first compound 0.000949 µM
[19] = second compound 1 µM, first compound 0.003 µM
[20] = second compound 1 µM, first compound 0.00949 µM
[21] = second compound 1 µM, first compound 0.03 µM
[22] = second compound 1 µM, first compound 0.0949 µM
[23] = second compound 1 µM, first compound 0.3 µM
[24] = second compound 3.16 µM, first compound 0.000949 µM
[25] = second compound 3.16 µM, first compound 0.003 µM
[26] = second compound 3.16 µM, first compound 0.00949 µM
[27] = second compound 3.16 µM, first compound 0.03 µM
[28] = second compound 3.16 µM, first compound 0.0949 µM
[29] = second compound 3.16 µM, first compound 0.3 µM
[30] = second compound 10 µM, first compound 0.000949 µM
[31] = second compound 10 µM, first compound 0.003 µM
[32] = second compound 10 µM, first compound 0.00949 µM
[33] = second compound 10 µM, first compound 0.03 µM
[34] = second compound 10 µM, first compound 0.0949 µM
[35] = second compound 10 µM, first compound 0.3 µM

CC(C)CC(NC(=O)C(Cc1ccccc1)NC(=O)c1cnccn1)B(O)O (stereo not drawn) + Cc1ccccc1N=Nc1ccc(NC(=O)c2ccnn2C)c(C)c1
inactive: viability, T/C [6] 91.9% | viability, T/C [7] 85.5% | viability, T/C [8] 12.4% | viability, T/C [12] 99.1% | viability, T/C [13] 102% | viability, T/C [14] 11% | viability, T/C [18] 81.7% | viability, T/C [19] 86.3% | viability, T/C [20] 12.4% | viability, T/C [24] 80.9% | viability, T/C [25] 86.7% | viability, T/C [26] 11.8% | viability, T/C [30] 84.8% | viability, T/C [31] 87.2%
5.16 nM: IC50 [4]
5.75 nM: IC50 [2]
5.11 nM: IC50 [5]
5.19 nM: IC50 [3]
active: viability, T/C [9] 2.56% | viability, T/C [10] 1.06% | viability, T/C [11] 0.48% | viability, T/C [15] 3.7% | viability, T/C [16] 3.08% | viability, T/C [17] 1.05% | viability, T/C [21] 3.99% | viability, T/C [22] 2.9% | viability, T/C [23] 0.61% | viability, T/C [27] 4.56% | viability, T/C [28] 3.32% | viability, T/C [29] 0.84% | viability, T/C [32] 8.3% | viability, T/C [33] 4.14% | viability, T/C [34] 1.64% | viability, T/C [35] 1.69%
5.25 nM: IC50 [1]

CC(CO)NC(=O)c1cc(-c2ccc(Cl)cc2)nn(-c2cnn(C)c2)c1=O (stereo not drawn)
> 10000 nM: IC50 (compound alone, run of 08/08/2022)
inactive: viability, T/C (compound 0.1 µM) 92.3% [middle of 20 runs] | viability, T/C (compound 0.316 µM) 90.5% [middle of 21 runs] | viability, T/C (compound 1 µM) 85.9% [middle of 21 runs] | viability, T/C (compound 3.16 µM) 83.2% [middle of 19 runs] | viability, T/C (compound 10 µM) 68.4% [middle of 19 runs]

Nc1ncn(C2CC(O)C(CO)O2)c(=O)n1 (stereo not drawn)
inactive: viability, T/C (compound 0.00316 µM) 95.4% and 108% and 105% | viability, T/C (compound 0.01 µM) 101% and 108% and 107% | viability, T/C (compound 0.0316 µM) 94% and 91.7% and 104% | viability, T/C (compound 0.1 µM) 87.1% and 96.7% and 97.3% | viability, T/C (compound 0.316 µM) 97.1% and 81.1% and 97.3% | viability, T/C (compound 1 µM) 72.5% and 71.4% and 83.5%
> 1000 nM: IC50 (curve of compound)

CCN(c1cc(-c2ccc(CN3CCOCC3)cc2)cc(C(=O)NCc2c(C)cc(C)[nH]c2=O)c1C)C1CCOCC1 + CC(CO)NC(=O)c1cc(-c2ccc(Cl)cc2)nn(-c2cnn(C)c2)c1=O
inactive: viability, T/C [8] 99.8% | viability, T/C [9] 95% | viability, T/C [10] 97.8% | viability, T/C [11] 95.6% | viability, T/C (second compound 0.1 µM, first compound 0.949 µM) 102% | viability, T/C (second compound 0.1 µM, first compound 3 µM) 103% | viability, T/C [14] 93.2% | viability, T/C [15] 101% | viability, T/C [16] 97.8% | viability, T/C [17] 93.3% | viability, T/C (second compound 0.316 µM, first compound 0.949 µM) 96.1% | viability, T/C (second compound 0.316 µM, first compound 3 µM) 98.9% | viability, T/C [20] 94.4% | viability, T/C [21] 95.8% | viability, T/C [22] 103% | viability, T/C [23] 92.3% | viability, T/C (second compound 1 µM, first compound 0.949 µM) 95.4% | viability, T/C (second compound 1 µM, first compound 3 µM) 97.4% | viability, T/C [26] 84.3% | viability, T/C [27] 96.2% | viability, T/C [28] 101% | viability, T/C [29] 88.5% | viability, T/C (second compound 3.16 µM, first compound 0.949 µM) 85.6% | viability, T/C (second compound 3.16 µM, first compound 3 µM) 102% | viability, T/C [32] 72.7% | viability, T/C [33] 77.5% | viability, T/C [34] 83.3% | viability, T/C [35] 75.3% | viability, T/C (second compound 10 µM, first compound 0.949 µM) 70.3% | viability, T/C (second compound 10 µM, first compound 3 µM) 75.9%
> 3000 nM: IC50 [1] | IC50 [2] | IC50 [3] | IC50 [4] | IC50 [5]

CC1COCCN1c1cc(-c2ccnn2C)c2ccnc(-c3ccn[nH]3)c2n1 (stereo not drawn) + CC(CO)NC(=O)c1cc(-c2ccc(Cl)cc2)nn(-c2cnn(C)c2)c1=O
inactive: viability, T/C (second compound 0.1 µM, first compound 0.00316 µM) 96.4% | viability, T/C (second compound 0.1 µM, first compound 0.01 µM) 103% | viability, T/C (second compound 0.1 µM, first compound 0.0316 µM) 82.3% | viability, T/C (second compound 0.1 µM, first compound 0.1 µM) 40.5% | viability, T/C (second compound 0.1 µM, first compound 0.316 µM) 20.1% | viability, T/C (second compound 0.1 µM, first compound 1 µM) 13% | viability, T/C (second compound 0.316 µM, first compound 0.00316 µM) 90% | viability, T/C (second compound 0.316 µM, first compound 0.01 µM) 104% | viability, T/C (second compound 0.316 µM, first compound 0.0316 µM) 76% | viability, T/C (second compound 0.316 µM, first compound 0.1 µM) 44.1% | viability, T/C (second compound 0.316 µM, first compound 0.316 µM) 17.1% | viability, T/C (second compound 0.316 µM, first compound 1 µM) 14.3% | viability, T/C (second compound 1 µM, first compound 0.00316 µM) 93.6% | viability, T/C (second compound 1 µM, first compound 0.01 µM) 92.6% | viability, T/C (second compound 1 µM, first compound 0.0316 µM) 78.6% | viability, T/C (second compound 1 µM, first compound 0.1 µM) 39.1% | viability, T/C (second compound 1 µM, first compound 0.316 µM) 18.4% | viability, T/C (second compound 1 µM, first compound 1 µM) 15.7% | viability, T/C (second compound 3.16 µM, first compound 0.00316 µM) 88.6% | viability, T/C (second compound 3.16 µM, first compound 0.01 µM) 84.9% | viability, T/C (second compound 3.16 µM, first compound 0.0316 µM) 70.7% | viability, T/C (second compound 3.16 µM, first compound 0.1 µM) 34.9% | viability, T/C (second compound 3.16 µM, first compound 0.316 µM) 21.4% | viability, T/C (second compound 3.16 µM, first compound 1 µM) 15.4% | viability, T/C (second compound 10 µM, first compound 0.00316 µM) 65.7% | viability, T/C (second compound 10 µM, first compound 0.01 µM) 68.5% | viability, T/C (second compound 10 µM, first compound 0.0316 µM) 55.1% | viability, T/C (second compound 10 µM, first compound 0.1 µM) 31.6% | viability, T/C (second compound 10 µM, first compound 0.316 µM) 20.2% | viability, T/C (second compound 10 µM, first compound 1 µM) 14%
72.7 nM: IC50 [3]
62 nM: IC50 [4]
77.7 nM: IC50 [1]
78.8 nM: IC50 [2]
41.7 nM: IC50 [5]

Nc1ncn(C2CC(O)C(CO)S2)c(=O)n1 (stereo not drawn) + CC(CO)NC(=O)c1cc(-c2ccc(Cl)cc2)nn(-c2cnn(C)c2)c1=O
> 300 nM: IC50 [1] | IC50 [2] | IC50 [3] | IC50 [4] | IC50 [5]
inactive: viability, T/C [6] 98% | viability, T/C [7] 101% | viability, T/C [8] 96.3% | viability, T/C [9] 93.8% | viability, T/C [10] 83.6% | viability, T/C [11] 68.8% | viability, T/C [12] 93% | viability, T/C [13] 109% | viability, T/C [14] 95.5% | viability, T/C [15] 86% | viability, T/C [16] 83.4% | viability, T/C [17] 72.1% | viability, T/C [18] 96.5% | viability, T/C [19] 99% | viability, T/C [20] 98.2% | viability, T/C [21] 92.5% | viability, T/C [22] 87.4% | viability, T/C [23] 70.3% | viability, T/C [24] 87.5% | viability, T/C [25] 90.9% | viability, T/C [26] 105% | viability, T/C [27] 76.6% | viability, T/C [28] 69.7% | viability, T/C [29] 70.6% | viability, T/C [30] 74.9% | viability, T/C [31] 78.3% | viability, T/C [32] 78.3% | viability, T/C [33] 71.9% | viability, T/C [34] 65% | viability, T/C [35] 59.3%
